# Source: ChEMBL document CHEMBL1129177, “Novel analogs of cyclic-ADP-ribose: 9-Cyclic etheno-ADP-ribose and cyclic etheno-CDP-ribose” (Bioorg Med Chem Lett, 1996)
# Species: Rattus norvegicus
# Assay: Dose response for [Ca2+] release from rat brain microsomes was determined
# Type: functional
row,EC50,Compound
1,22 µM,Nc1c2ncn3c2nc[n+]1[C@@H]1O[C@H](COP(=O)([O-])OP(=O)(O)OC[C@H]2O[C@@H]3[C@H](O)[C@@H]2O)[C@@H](O)[C@H]1O
2,0.09 µM,"O=P(O)(O)O[C@@H]1[C@H](O)[C@H](O)[C@@H](OP(=O)(O)O)[C@H](OP(=O)(O)O)[C@H]1O [INS(1,4,5)P3]"
3,8 µM,O=P1([O-])OC[C@H]2OC([C@H](O)[C@@H]2O)[n+]2ccn3cnc4c(ncn4C4O[C@H](COP(=O)(O)O1)[C@@H](O)[C@H]4O)c32
